Source: the NIST ThermoML archive (doi:10.1021/acs.jced.6b00455)

Assay: mn = molality of the nth substance listed, in mol/kg
Conditions: 101 kPa, Liquid, Alternating current cell with electrodes

C[N+](C)(C)CCO.O=C([O-])C(F)(F)C(F)(F)C(F)(F)C(F)(F)C(F)(F)C(F)(F)C(F)(F)F [(2-hydroxyethyl)trimethylammonium perfluorooctanoate] + O
Conditions | electrical conductivity [S/m]
303.15 K, m1 = 0.003487 | 0.0256
303.15 K, m1 = 0.003599 | 0.0264
303.15 K, m1 = 0.003701 | 0.0271
303.15 K, m1 = 0.003815 | 0.0279
303.15 K, m1 = 0.003911 | 0.0285
303.15 K, m1 = 0.004027 | 0.0293
303.15 K, m1 = 0.004122 | 0.03
303.15 K, m1 = 0.004288 | 0.0311
303.15 K, m1 = 0.004393 | 0.0318
303.15 K, m1 = 0.004492 | 0.0325
303.15 K, m1 = 0.004585 | 0.0331
303.15 K, m1 = 0.004679 | 0.0337
303.15 K, m1 = 0.004785 | 0.0345
308.15 K, m1 = 6.9e-05 | 0.0006
308.15 K, m1 = 0.000131 | 0.0012
308.15 K, m1 = 0.000188 | 0.0016
308.15 K, m1 = 0.000233 | 0.002
308.15 K, m1 = 0.000278 | 0.0024
308.15 K, m1 = 0.000329 | 0.0029
308.15 K, m1 = 0.000372 | 0.0032
308.15 K, m1 = 0.000407 | 0.0035
308.15 K, m1 = 0.000451 | 0.0039
308.15 K, m1 = 0.000486 | 0.0043
308.15 K, m1 = 0.000545 | 0.0048
308.15 K, m1 = 0.000576 | 0.0051
308.15 K, m1 = 0.000628 | 0.0055
308.15 K, m1 = 0.000669 | 0.0059
308.15 K, m1 = 0.000706 | 0.0062
308.15 K, m1 = 0.000758 | 0.0067
308.15 K, m1 = 0.000796 | 0.007
308.15 K, m1 = 0.000831 | 0.0073
308.15 K, m1 = 0.000864 | 0.0076
308.15 K, m1 = 0.0009 | 0.0079
308.15 K, m1 = 0.000934 | 0.0082
308.15 K, m1 = 0.000981 | 0.0087
308.15 K, m1 = 0.001026 | 0.0091
308.15 K, m1 = 0.00106 | 0.0094
308.15 K, m1 = 0.001098 | 0.0097
308.15 K, m1 = 0.001138 | 0.0101
308.15 K, m1 = 0.001211 | 0.0107
308.15 K, m1 = 0.001265 | 0.0112
308.15 K, m1 = 0.001299 | 0.0114
308.15 K, m1 = 0.001362 | 0.012
308.15 K, m1 = 0.001397 | 0.0123
308.15 K, m1 = 0.001445 | 0.0127
308.15 K, m1 = 0.0015 | 0.0132
308.15 K, m1 = 0.001539 | 0.0136
308.15 K, m1 = 0.001701 | 0.015
308.15 K, m1 = 0.001808 | 0.0159
308.15 K, m1 = 0.001958 | 0.0173
308.15 K, m1 = 0.002148 | 0.0189
308.15 K, m1 = 0.002371 | 0.0209
308.15 K, m1 = 0.0025 | 0.022
308.15 K, m1 = 0.002602 | 0.0229
308.15 K, m1 = 0.002723 | 0.0239
308.15 K, m1 = 0.00288 | 0.0253
308.15 K, m1 = 0.003015 | 0.0265
308.15 K, m1 = 0.003126 | 0.0274
308.15 K, m1 = 0.00328 | 0.0287
308.15 K, m1 = 0.003401 | 0.0297
308.15 K, m1 = 0.003526 | 0.0308
308.15 K, m1 = 0.003657 | 0.0319
308.15 K, m1 = 0.003764 | 0.0328
308.15 K, m1 = 0.003883 | 0.0337
308.15 K, m1 = 0.003991 | 0.0346
308.15 K, m1 = 0.004106 | 0.0356
308.15 K, m1 = 0.00422 | 0.0365
308.15 K, m1 = 0.004341 | 0.0375
308.15 K, m1 = 0.004478 | 0.0386
308.15 K, m1 = 0.004597 | 0.0396
308.15 K, m1 = 0.004723 | 0.0405
313.15 K, m1 = 0.000143 | 0.0013
313.15 K, m1 = 0.000274 | 0.0026
313.15 K, m1 = 0.000394 | 0.0038
313.15 K, m1 = 0.000543 | 0.005
313.15 K, m1 = 0.00064 | 0.006
313.15 K, m1 = 0.000773 | 0.0073
313.15 K, m1 = 0.000904 | 0.0087
313.15 K, m1 = 0.001044 | 0.0101
313.15 K, m1 = 0.001221 | 0.012
313.15 K, m1 = 0.001372 | 0.0134
313.15 K, m1 = 0.001554 | 0.0149
313.15 K, m1 = 0.001697 | 0.0164
313.15 K, m1 = 0.001835 | 0.0178
313.15 K, m1 = 0.002088 | 0.02
313.15 K, m1 = 0.002327 | 0.0222
313.15 K, m1 = 0.002528 | 0.0242
313.15 K, m1 = 0.002879 | 0.0274
313.15 K, m1 = 0.003226 | 0.0306
313.15 K, m1 = 0.003438 | 0.0318
313.15 K, m1 = 0.003602 | 0.0333
313.15 K, m1 = 0.003774 | 0.035
313.15 K, m1 = 0.004014 | 0.037
313.15 K, m1 = 0.00417 | 0.0382
313.15 K, m1 = 0.004352 | 0.0397
313.15 K, m1 = 0.004528 | 0.0415
313.15 K, m1 = 0.004708 | 0.043
313.15 K, m1 = 0.004876 | 0.0446
313.15 K, m1 = 0.005072 | 0.0463
313.15 K, m1 = 0.005237 | 0.0477
